# Laboratory results taken from ChEMBL document CHEMBL1201862, “PubChem BioAssay data set” (2004).
# Calls of active or inactive are those of the source.
# Tests used:
# [1] = biological target: 5-hydroxytryptamine receptor 2A (Mus musculus, UniProt P35363); type: functional, cell-based;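 note: CHO-K1 cells with tagged receptor and beta-arrestin; agonist potency measured as compound-induced activation of the receptor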
# Mu-type opioid receptor = Mu-type opioid receptor (Homo sapiens, UniProt P35372); type: functional, cell-based;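 note: U2OS cells with beta-arrestin recruitment to OPRM1 by beta-gal complementation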
# [2] = biological target: Fructose-bisphosphate aldolase (Mycobacterium tuberculosis, UniProt P9WQA3); experiment: Fluorescence-based biochemical high throughput dose response assay for inhibitors of the fructose-bisphosphate aldolase (FBA) of M. tuberculosis.; type: functional
# [3] = Luminescence Cell-Based Dose Response HTS to Identify Activators of Luciferase Translation or Activity in H4 […] Cells. [Related pubchem assays: 1829 (Project Summary), 1814 (Primary HTS)]; type: functional
# [4] = Luminescence Cell-Based Dose Confirmation HTS to Identify Activators of 5'UTR Stem-Loop Driven Alpha-Synuclein mRNA Translation in H4 Neuroglioblastoma Cells. [Related pubchem assays: 1829 (Project Summary), 1814 (Primary HTS)]; type: functional
# [5] = LGR2 antagonists, dose response, cell-based, HEK293, CRE-luciferase reporter, cherry pick, set 2 (AID 743343); type: functional;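 note: transfected cells were stimulated with diluted bursicon conditioned medium after compound addition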
# H4 = experiment: Luminescence Cell-Based Dose Response HTS to Identify Activators of 5'UTR Stem-Loop Driven Prion Protein mRNA Translation in H4 Neuroglioblastoma Cells. [Related pubchem assays: 1829 (Project Summary), 1814 (Primary HTS)]; type: functional; details: Homo sapiens
# [6] = MC4R antagonists, dose response, counter-screen for LGR2 antagonist project, cell-based, plate reader, cherry pick (AID 743444); type: functional;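 note: transfected HEK 293 cells stimulated with alpha-MSH peptide; potency of inhibitors of the alpha-MSH evoked signal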
# [7] = A549 cell cytotoxicity, dose response, cytotoxicity control, plate reader, cherry-pick, antagonist series (AID 743412); type: functional, cell-based
# [8] = biological target: T1, Heat shock factor protein 1 (Mus musculus, UniProt P38532); experiment: inhibition of MG132-induced HSE-luciferase signal, confirmation, cell-based, NIH3T3, luminescence, dose retest (AID 2382); type: functional;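 note: NIH3T3 fibroblasts with HSF1-driven luciferase reporter stressed by proteasome inhibitor MG132; luminescence from HSF1-driven luciferase expression after 8 hours of MG132 stress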
# T1 sequence (P38532 whole entry): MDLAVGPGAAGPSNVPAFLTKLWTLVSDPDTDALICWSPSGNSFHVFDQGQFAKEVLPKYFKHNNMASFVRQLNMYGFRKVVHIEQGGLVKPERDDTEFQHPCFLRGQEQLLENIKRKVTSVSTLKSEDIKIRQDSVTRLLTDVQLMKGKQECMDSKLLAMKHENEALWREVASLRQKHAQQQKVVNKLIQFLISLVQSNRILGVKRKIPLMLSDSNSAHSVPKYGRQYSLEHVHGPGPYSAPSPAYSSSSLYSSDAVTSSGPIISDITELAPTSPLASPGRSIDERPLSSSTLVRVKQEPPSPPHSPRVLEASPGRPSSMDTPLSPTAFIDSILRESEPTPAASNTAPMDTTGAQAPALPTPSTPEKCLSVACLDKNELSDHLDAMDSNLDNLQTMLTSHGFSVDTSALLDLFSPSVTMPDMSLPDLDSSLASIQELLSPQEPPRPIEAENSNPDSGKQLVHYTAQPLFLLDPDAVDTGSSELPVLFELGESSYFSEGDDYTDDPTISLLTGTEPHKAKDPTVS
# [9] = HEK293 cell cytotoxicity, dose response, cytotoxicity control, plate reader, cherry-picked samples (AID 743446); type: functional, cell-based
# [10] = biological target: Hepatocyte nuclear factor 4-alpha (Homo sapiens, UniProt P41235); type: functional, cell-based;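 note: biochemical luminescence-based dose-response counterscreen measuring inhibition of HNF4 dimerization, run alongside a screen for blockers of ABHD5–perilipin-5 interaction; split luciferase complementation of HNF4 fusion proteins in cell lysate measuring dimerization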
# [11] = cytotoxicity in HEK-293T cells, dose response, cytotoxicity control for BCR NF-kB inhibitor project, luminescence, B-cell screen hits (AID 489021); type: functional, cell-based;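 note: HEK-293T cells carrying an NF-kB luciferase reporter; cells exposed to compound for about 14 hours before viability readout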
# [12] = growth suppression of PTEN-null colon cells, dose response, cell-based, HCT116 PTEN knockout (AID 1047); type: functional;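 note: HCT116 colon tumor cells with PTEN knocked out; cells exposed to compound for 60 hours before readout; potency for loss of cell viability measured by luminescence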
# [13] = growth suppression of beta-catenin-knockout colon cells, dose response, cell-based, HCT116, human colon tumor (AID 1045); type: functional;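 note: HCT116 colon tumor cells with beta catenin knocked out; cells exposed to compound for 60 hours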
# fMet-Leu-Phe receptor = fMet-Leu-Phe receptor (Homo sapiens, UniProt P21462); experiment: FPR ligands, dose response (AID 519); type: functional
# Cytochrome P450 3A4 = Cytochrome P450 3A4 (Homo sapiens, UniProt P08684);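 note: CYP3A4 tested as one member of a cytochrome P450 panel screen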
# [14] = biological target: T2, Polyadenylate-binding protein 1 (Homo sapiens, UniProt P11940); experiment: PABP1 MLLE–PAM2 binding inhibitor potency, dose response, biochemical, fluorescence polarization, FITC-PAM2 peptide (AID 602259); type: functional; details: read-out: IC50_Mean
# [15] = biological target: Botulinum neurotoxin type F (Clostridium botulinum, UniProt P30996); experiment: High-throughput multiplex microsphere dose response for inhibitors of toxin protease, specifically Botulinum neurotoxin light chain F protease, compounds from Cherry Pick 02.; type: functional; details: read-out: EC50_MICROM
# [16] = biological target: T2, Polyadenylate-binding protein 1; experiment: PABP1 MLLE–PAM2 interaction inhibitors, dose response, miRNA deadenylation inhibitor project, biochemical, fluorescence polarization, Cy5-PAM2 peptide, secondary (AID 602260); type: functional; details: read-out: IC50_Mean
# [17] = StAR promoter reporter inhibition counter-screen, dose response, counter-screen for LRH-1 inverse agonist project, cell-based, luminescence, luciferase reporter (AID 651969); type: functional
# Steroidogenic factor 1 = Steroidogenic factor 1 (Homo sapiens, UniProt Q13285); experiment: Counterscreen for inverse agonists of the liver receptor homolog-1 (LRH-1; NR5A2): Luminescence-based cell-based high throughput dose response assay to identify inverse agonists of the Steroidogenic Factor 1 Nuclear Receptor (SF1; NR5A1).; type: functional
# [18] = biological target: Luciferin 4-monooxygenase (Photinus pyralis, UniProt P08659); experiment: firefly luciferase enzyme inhibitors, dose response, biochemical, luminescence (AID 1891)
# [19] = biological target: Nuclear receptor subfamily 5 group A member 2 (Homo sapiens, UniProt O00482); type: functional, cell-based;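 note: HEK293T cells transfected with LRH-1 and a StAR promoter luciferase reporter; potency for inhibitors that lower LRH-1 driven reporter light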
# [20] = Luminescence Cell-Based Dose Confirmation HTS to Identify Inhibitors of Platelet Dense Granule Release. [Related pubchem assays: 1663 (Primary HTS), 1678 (Summary of Project)]; type: functional
# Beta-galactosidase = Beta-galactosidase (Escherichia coli, UniProt Q8VNN2); experiment: Dose response counterscreen for EBI2 assay utilizing the enzyme, b-galactosidase.; type: functional
# [21] = biological target: DNA dC->dU-editing enzyme APOBEC-3G (Homo sapiens, UniProt Q9HC16); type: functional;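 note: Dose-response counterscreen measuring inhibition of APOBEC3G DNA deaminase activity, run while confirming APOBEC3A inhibitors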
# [22] = biological target: DNA dC->dU-editing enzyme APOBEC-3A (Homo sapiens, UniProt P31941); experiment: Dose Response confirmation of small molecule APOBEC3A DNA Deaminase Inhibitors via a fluorescence-based single-stranded DNA deaminase assay. [Related pubchem assays (depositor defined):AID493011, AID493024]; type: functional
# [23] = biological target: Nuclear receptor subfamily 0 group B member 1 (Homo sapiens, UniProt P51843); type: functional, cell-based;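 note: HEK293T cells transfected with SF-1 and DAX-1 plus StAR promoter luciferase reporter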
# cells = type: functional, cell-based
# Mu-type opioid receptor, sequence (P35372 whole entry): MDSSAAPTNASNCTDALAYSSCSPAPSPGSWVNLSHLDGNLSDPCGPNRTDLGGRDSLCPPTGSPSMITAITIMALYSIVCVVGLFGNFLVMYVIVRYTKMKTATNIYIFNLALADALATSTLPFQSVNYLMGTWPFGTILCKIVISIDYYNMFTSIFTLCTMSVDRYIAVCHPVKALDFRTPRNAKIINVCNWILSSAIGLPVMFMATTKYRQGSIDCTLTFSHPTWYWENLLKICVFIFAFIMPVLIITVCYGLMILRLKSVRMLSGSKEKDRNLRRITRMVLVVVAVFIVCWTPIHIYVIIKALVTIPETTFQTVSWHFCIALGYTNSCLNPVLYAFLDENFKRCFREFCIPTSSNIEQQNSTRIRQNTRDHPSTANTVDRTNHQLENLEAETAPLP
# T2 sequence (P11940 whole entry): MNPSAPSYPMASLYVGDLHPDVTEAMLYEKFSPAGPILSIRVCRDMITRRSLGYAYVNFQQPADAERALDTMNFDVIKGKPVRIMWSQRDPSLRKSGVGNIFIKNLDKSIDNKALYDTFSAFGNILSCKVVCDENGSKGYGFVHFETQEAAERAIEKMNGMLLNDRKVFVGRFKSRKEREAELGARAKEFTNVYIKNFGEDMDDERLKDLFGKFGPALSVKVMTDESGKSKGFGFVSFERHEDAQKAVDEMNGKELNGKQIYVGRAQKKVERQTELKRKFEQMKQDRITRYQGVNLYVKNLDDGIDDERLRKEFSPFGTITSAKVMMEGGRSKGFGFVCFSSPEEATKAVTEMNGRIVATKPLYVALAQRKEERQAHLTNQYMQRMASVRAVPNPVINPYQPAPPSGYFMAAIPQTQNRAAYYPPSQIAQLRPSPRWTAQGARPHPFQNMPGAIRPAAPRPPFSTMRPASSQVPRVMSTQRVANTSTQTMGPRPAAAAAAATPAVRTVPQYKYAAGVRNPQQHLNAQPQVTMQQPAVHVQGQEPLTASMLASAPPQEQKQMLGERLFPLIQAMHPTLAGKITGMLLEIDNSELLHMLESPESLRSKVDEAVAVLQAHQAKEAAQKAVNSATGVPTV
# 5-hydroxytryptamine receptor 2A, sequence (P35363 whole entry): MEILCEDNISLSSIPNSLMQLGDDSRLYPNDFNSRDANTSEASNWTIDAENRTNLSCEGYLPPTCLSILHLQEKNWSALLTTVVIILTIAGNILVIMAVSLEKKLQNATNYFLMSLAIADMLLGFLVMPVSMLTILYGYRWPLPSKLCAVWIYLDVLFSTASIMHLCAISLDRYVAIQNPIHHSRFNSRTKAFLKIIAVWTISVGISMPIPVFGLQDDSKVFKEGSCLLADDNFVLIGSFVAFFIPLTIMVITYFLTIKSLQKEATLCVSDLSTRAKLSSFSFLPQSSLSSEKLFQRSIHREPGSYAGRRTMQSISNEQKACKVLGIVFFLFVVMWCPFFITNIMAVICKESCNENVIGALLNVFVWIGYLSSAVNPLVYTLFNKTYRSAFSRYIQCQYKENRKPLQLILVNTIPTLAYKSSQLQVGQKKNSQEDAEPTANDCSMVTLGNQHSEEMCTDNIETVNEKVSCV
# DNA dC->dU-editing enzyme APOBEC-3A, sequence (P31941 whole entry): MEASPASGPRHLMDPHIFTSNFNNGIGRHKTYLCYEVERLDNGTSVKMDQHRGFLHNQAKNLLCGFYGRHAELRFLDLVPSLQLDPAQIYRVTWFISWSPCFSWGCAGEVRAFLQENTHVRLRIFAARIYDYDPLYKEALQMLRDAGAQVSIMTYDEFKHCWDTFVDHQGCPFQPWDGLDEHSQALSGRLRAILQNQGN
# Luciferin 4-monooxygenase, sequence (P08659 whole entry): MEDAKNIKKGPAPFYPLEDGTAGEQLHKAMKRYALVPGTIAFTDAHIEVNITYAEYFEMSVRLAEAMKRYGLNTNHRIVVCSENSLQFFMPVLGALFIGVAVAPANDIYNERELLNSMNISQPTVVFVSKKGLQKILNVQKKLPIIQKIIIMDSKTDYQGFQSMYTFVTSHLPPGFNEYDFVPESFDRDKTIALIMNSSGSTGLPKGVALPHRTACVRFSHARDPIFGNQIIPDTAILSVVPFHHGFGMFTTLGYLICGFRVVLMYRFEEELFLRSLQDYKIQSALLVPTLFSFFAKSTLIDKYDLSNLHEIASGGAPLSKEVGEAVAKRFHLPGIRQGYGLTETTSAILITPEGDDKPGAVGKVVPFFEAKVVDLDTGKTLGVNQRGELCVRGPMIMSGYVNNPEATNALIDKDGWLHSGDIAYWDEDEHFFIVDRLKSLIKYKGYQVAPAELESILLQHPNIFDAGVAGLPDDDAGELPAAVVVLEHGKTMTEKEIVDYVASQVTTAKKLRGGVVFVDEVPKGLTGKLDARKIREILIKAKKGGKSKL
# Steroidogenic factor 1, sequence (Q13285 whole entry): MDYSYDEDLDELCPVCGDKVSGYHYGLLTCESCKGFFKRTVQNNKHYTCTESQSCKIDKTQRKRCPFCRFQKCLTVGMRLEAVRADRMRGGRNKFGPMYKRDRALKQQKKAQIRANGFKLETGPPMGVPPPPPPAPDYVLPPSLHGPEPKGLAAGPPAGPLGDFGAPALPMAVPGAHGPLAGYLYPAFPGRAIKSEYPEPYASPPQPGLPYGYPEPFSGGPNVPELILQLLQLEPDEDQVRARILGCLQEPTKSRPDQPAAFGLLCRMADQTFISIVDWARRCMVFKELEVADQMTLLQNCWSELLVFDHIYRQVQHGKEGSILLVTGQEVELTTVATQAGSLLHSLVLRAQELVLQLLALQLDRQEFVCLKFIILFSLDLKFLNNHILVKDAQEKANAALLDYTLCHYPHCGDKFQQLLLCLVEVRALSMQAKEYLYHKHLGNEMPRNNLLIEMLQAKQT
# fMet-Leu-Phe receptor, sequence (P21462 whole entry): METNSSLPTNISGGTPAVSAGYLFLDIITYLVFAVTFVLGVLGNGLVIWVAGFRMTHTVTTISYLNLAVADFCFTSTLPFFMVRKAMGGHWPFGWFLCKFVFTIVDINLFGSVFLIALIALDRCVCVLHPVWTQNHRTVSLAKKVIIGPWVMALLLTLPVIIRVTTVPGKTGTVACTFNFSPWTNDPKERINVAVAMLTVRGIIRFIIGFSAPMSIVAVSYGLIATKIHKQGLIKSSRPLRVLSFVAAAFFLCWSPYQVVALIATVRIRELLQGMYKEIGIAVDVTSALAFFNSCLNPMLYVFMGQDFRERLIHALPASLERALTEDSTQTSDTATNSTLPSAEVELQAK
# Fructose-bisphosphate aldolase, sequence (P9WQA3 whole entry): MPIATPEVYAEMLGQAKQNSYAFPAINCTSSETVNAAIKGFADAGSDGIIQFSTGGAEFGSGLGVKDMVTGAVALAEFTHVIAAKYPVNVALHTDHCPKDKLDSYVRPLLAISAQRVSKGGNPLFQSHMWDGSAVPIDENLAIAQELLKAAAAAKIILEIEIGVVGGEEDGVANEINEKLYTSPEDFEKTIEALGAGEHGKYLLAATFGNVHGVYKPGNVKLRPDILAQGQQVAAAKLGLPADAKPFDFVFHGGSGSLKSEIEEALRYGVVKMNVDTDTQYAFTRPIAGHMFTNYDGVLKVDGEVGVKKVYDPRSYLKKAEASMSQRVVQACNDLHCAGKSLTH
# Beta-galactosidase, sequence (Q8VNN2 whole entry): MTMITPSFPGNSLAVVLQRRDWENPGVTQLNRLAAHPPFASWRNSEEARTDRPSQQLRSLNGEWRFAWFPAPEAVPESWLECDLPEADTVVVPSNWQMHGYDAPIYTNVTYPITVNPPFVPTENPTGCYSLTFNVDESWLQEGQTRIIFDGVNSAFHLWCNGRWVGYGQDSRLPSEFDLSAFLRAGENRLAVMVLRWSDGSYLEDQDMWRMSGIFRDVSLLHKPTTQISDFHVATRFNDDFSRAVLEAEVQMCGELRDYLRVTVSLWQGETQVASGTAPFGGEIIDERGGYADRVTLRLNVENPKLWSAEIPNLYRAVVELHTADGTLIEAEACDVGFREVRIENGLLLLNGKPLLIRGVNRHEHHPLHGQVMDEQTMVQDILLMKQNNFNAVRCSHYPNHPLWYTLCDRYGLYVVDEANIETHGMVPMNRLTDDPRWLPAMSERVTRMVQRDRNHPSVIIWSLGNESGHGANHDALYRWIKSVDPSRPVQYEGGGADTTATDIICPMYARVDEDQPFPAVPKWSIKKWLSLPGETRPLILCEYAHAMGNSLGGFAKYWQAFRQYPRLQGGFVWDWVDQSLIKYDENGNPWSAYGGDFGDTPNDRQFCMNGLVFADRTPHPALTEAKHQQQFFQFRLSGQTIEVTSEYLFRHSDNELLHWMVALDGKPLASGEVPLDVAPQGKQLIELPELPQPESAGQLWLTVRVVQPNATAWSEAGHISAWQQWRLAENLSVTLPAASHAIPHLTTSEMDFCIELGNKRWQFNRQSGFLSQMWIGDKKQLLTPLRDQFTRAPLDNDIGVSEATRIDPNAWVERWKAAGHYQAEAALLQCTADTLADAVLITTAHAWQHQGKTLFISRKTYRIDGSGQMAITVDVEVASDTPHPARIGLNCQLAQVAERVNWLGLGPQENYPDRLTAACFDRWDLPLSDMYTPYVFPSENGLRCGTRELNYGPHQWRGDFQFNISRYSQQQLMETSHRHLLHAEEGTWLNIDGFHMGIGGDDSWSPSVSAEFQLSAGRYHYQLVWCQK
# Hepatocyte nuclear factor 4-alpha, sequence (P41235 whole entry, the tested form may be a part): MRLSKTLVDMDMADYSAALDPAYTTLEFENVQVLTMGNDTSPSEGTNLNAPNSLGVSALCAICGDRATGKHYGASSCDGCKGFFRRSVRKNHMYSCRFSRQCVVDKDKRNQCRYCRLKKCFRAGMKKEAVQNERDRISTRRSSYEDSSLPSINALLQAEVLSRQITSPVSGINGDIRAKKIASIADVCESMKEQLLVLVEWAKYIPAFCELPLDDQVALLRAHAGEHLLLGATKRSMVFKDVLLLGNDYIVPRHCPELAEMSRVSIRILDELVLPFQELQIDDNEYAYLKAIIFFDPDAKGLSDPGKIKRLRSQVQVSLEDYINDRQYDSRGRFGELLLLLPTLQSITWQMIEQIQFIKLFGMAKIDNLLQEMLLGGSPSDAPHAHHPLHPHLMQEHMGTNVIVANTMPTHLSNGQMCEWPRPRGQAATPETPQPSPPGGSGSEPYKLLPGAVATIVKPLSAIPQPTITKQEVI
compound,measurement,setting,value
c1ccc(N2CCN(Cc3ccsc3)CC2)nc1,EC50,[1],0.125 µM (active)
same,EC50,Mu-type opioid receptor,92.4 µM (inactive)
O=C1NC(=O)c2cc(NC(=O)C3CCCO3)ccc21 (configuration not stated),IC50,[2],2.39 µM (active)
CN(C(=O)COC(=O)c1nc(Cl)c(Cl)c(Cl)c1Cl)C1CCS(=O)(=O)C1 (configuration not stated),EC50,[3],> 120 µM (not active)
same,EC50,[4],> 120 µM (not active)
same,AC50,[5],15.8 µM (active)
same,EC50,H4,> 120 µM (not active)
same,AC50,[6],22.7 µM (active)
same,AC50,[7],7.97 µM (active)
same,EC50,[8],13.1 µM (active)
same,AC50,[9],6.09 µM (active)
CC1=CC(C)(C)Nc2ccc(OC(=O)C(C)N3C(=O)c4ccccc4C3=O)cc21 (configuration not stated),IC50,[10],11.1 µM (inactive)
same,IC50,[11],> 80 µM (inactive)
same,EC50,[12],8.18 µM (active)
same,EC50,[13],7.55 µM (active)
COCCCN1C(=O)C(O)=C(C(=O)c2ccc(OC)cc2C)C1c1cccnc1 (configuration not stated),Ki,fMet-Leu-Phe receptor,> 66.7 µM (inactive)
same,AC50,Cytochrome P450 3A4,20 µM (inconclusive)
Cc1cc2cc(CNC(=O)c3cccc([N+](=O)[O-])c3)ccc2[nH]1,IC50,[14],> 66 µM (inactive)
same,EC50,[15],> 20 µM (inactive)
same,IC50,[16],> 66 µM (inactive)
COc1ccc(C2(C)NC(=O)N(CC(=O)NCCC3=CCCCC3)C2=O)cc1OC (configuration not stated),IC50,[17],35.9 µM (inactive)
same,IC50,Steroidogenic factor 1,5.24 µM (active)
same,EC50,[18],> 112 µM (not active)
same,IC50,[19],35.9 µM (inactive)
same,EC50,[20],> 112 µM (not active)
CCOc1cc(CN2CCN(c3ncccn3)CC2)ccc1OC,EC50,[1],76.1 µM (inactive)
same,EC50,Mu-type opioid receptor,92.5 µM (inactive)
COc1ccccc1CCNC(=O)C1CCN(C(=O)/C=C/c2ccccc2)CC1,IC50,Beta-galactosidase,> 80 µM (inactive)
same,IC50,[21],14.6 µM (active)
same,IC50,[22],13.9 µM (active)
CCOC(=O)c1c(SCC(=O)Nc2nccs2)nc(C)c(C)c1C,IC50,[23],> 67.5 µM (inactive)
same,IC50,cells,> 67.5 µM (inactive)
